{"source": "patent US5120830A", "about": "“Inhibitory peptides against α-2, β-1 mediated mg^++ dependent adhesion of platelets to collagen” (Washington University, priority 1990, dated 1992)", "molecular_target": "T1, α2 β1 integrin (Homo sapiens, UniProt P05556+P17301)", "T1 construct": "Mg^++ -dependent adhesion of platelets, which use the α2 β1 integrin as a collagen specific receptor; endogenous in cells; host or cells: washed 51Cr-labelled platelets", "T1 sequence (P17301 30-1181)": "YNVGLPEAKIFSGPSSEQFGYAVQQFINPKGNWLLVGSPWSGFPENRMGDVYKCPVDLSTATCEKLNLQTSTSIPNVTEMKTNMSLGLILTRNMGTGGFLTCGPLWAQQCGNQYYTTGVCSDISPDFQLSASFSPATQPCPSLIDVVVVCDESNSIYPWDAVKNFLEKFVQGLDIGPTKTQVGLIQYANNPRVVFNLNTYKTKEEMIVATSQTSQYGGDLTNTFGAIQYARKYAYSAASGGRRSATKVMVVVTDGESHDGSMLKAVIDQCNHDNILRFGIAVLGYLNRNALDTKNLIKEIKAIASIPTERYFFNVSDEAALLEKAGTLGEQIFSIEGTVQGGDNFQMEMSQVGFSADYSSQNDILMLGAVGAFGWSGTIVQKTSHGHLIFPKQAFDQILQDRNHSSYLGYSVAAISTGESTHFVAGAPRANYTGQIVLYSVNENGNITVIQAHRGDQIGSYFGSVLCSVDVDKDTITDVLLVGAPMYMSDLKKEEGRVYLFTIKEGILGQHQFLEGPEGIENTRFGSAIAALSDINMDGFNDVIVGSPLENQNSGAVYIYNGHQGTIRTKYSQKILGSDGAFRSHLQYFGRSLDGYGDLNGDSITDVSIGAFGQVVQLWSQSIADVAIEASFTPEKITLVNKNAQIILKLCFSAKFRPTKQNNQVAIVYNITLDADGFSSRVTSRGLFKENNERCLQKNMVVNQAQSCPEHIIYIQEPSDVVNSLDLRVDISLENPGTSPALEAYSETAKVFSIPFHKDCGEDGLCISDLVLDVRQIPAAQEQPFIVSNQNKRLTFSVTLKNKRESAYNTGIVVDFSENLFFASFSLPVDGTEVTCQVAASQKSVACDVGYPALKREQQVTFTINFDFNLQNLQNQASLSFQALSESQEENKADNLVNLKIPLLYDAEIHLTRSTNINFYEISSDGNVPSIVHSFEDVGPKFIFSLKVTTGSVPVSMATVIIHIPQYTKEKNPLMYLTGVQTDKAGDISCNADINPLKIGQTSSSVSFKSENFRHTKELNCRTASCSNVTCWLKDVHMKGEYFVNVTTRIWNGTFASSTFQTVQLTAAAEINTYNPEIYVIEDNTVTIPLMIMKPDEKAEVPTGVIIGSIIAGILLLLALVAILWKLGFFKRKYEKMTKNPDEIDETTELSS", "T1 sequence (P05556 21-798)": "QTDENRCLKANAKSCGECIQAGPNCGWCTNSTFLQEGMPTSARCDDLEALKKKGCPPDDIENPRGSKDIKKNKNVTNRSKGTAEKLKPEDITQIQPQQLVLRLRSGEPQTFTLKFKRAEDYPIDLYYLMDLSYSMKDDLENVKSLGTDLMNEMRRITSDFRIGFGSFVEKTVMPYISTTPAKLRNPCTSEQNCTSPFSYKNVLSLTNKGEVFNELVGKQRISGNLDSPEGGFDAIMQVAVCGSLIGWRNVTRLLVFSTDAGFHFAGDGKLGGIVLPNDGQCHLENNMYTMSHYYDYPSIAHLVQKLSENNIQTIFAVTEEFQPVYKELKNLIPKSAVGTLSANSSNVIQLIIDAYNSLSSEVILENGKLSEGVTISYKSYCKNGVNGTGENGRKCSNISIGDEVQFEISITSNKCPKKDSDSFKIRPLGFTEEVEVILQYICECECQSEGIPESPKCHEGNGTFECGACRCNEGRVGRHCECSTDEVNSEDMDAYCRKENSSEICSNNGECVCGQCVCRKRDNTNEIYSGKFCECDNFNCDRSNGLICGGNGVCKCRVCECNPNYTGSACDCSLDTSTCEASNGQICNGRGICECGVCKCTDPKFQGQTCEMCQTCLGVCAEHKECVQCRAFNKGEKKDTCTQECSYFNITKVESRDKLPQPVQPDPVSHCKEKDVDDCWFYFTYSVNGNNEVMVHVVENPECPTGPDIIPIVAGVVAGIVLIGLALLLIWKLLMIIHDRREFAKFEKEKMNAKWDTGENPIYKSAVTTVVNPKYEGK", "assay": "Mg++-dependent adhesion of 51Cr-labeled platelets to type I collagen substrates, peptide inhibition", "assay_type": "cell-based", "protocol": "Platelet Adhesion-Platelets were washed and labeled with ^51 CrO4 as described in detail by Haverstick et al (22). Platelet adhesion to substrate composed of 0.5% BSA or 20 μg/ml of either type I collagen, laminin or fibronectin in polystryene dishes was determined as previously described in detail (7). Alternately, adhesion assays were carried out in 96 well microtiter dishes (Immulon II, Dynatech). In this case substrate coating- and adhesion assay volumes were adjusted to 100 μl and wash volumes were adjusted to 140 μl per well. Platelets were permitted to adhere for 60 min at a concentration of 1.3-- to 1.8×10^8 platelets/ml, then wash five times in adhesion assay buffer before being lysed with two […] aliquots of 2% SDS which were subsequently pooled and counted.\nPeptide Inhibition--After labeling and washing, cells were resuspended at 2.6- to 3.6×10^5 /ml for platelets or 2×10^5 /ml for T47D cells. Aliquots were added to equal volumes of buffer containing appropriate concentrations of the peptides and divalent cations and preincubated for 15 min before being added to the adhesive substrates. Adhesion was quantitated as described above.", "note": "Where no end group is shown, it is not given here."}
{"substance": "GPAGKDGEAGAQG-NH2 [peptide 430, GPAGKDGEAGAQG]", "values": [{"measurement": "IC50", "setting": "read-out: Half-maximal inhibition of Mg++-dependent platelet adhesion to collagen", "value": 2800, "unit": "µM"}]}
{"substance": "KDGEA-NH2 [KDGEA]", "values": [{"measurement": "Inhibitory activity in 1 mM Mg++ as percent of the activity observed in 6 mM Mg++", "setting": "1 mM Mg++ versus 6 mM Mg++", "value": 80, "unit": "%"}, {"measurement": "Inhibition of Mg++-dependent platelet adhesion to collagen", "setting": "4 mM peptide, 2 mM Mg++", "value": 80, "unit": "%"}]}
